Measured values: US20110071204A1, “PERCUTANEOUS ABSORPTION PREPARATION” (KYORIN PHARMACEUTICAL CO., LTD., priority 2005, published 2011)

Tests used:
[1] = system: bladder contraction induced by methacholine; format: in vivo; conditions: guinea pig
Text: Male Std:Hartley guinea pigs (Japan SLC Inc., week of age at the time of use: 6 weeks of age, from 340.6 to 488.0 g in body weight) were anesthetized with urethane. The abdominal region was subjected to median incision, and then both sides of ureters were ligated in order to prevent inflow of urine from the kidney to the bladder. After ligation of the bladder cervix, a catheter for intravesical pressure measurement use was inserted from the bladder apex and fixed by ligation. Thereafter, in order to measure intravesical pressure, 1 ml of physiological saline was injected into the bladder. Next, a catheter was indwelled in the left jugular vein. The intravesical pressure was measured via an amplifier for strain pressure use (Nihon Kohden Corporation, CARRIER ANPLIFIER AP-601G) by connecting the catheter for intravesical pressure measuring use to a pressure transducer (Nihon Kohden Corporation, LIFE KIT DX-100). By inserting a catheter into the jugular vein, imidafenacin was administered by continuous intravenous infusion (100 μl/kg/min). After 75 minutes of the commencement of administration of the agent liquid, methacholine (10 μg/kg) was intravenously administered to induce bladder contraction. The bladder contraction inhibitory activity was evaluated using peak height of the bladder contraction induced by methacholine as the index. […]

[2] = system: airway contraction induced by methacholine; test: Airway contraction measuring method (Konzett & Rossler), methacholine-induced; format: in vivo; conditions: guinea pig
Description: Male Std:Hartley guinea pigs (Japan SLC Inc., week of age at the time of use: 6 weeks of age, from 340.6 to 488.0 g in body weight) were anesthetized with urethane, and a canula was inserted into the trachea. The trachea canula was connected to a quantitative artificial ventilator, and under artificial respiration, a catheter was indwelled in the left jugular vein. Measurement of the airway contraction was carried out by the Konzett & Rossler method. Guinea pigs were subjected to artificial respiration at a ventilation of 4 ml/animal and a ventilation frequency of 70 times/minute. Changes in the ventilation pressure were measured by a transducer (UGO BASILE, BRONCHOSPASM TRANSDUCER 7020) connected to the sub-bypass of the trachea canula. By inserting a catheter into the jugular vein, imidafenacin was administered by continuous intravenous infusion (100 μl/kg/min). After 75 minutes of the start of administration of the agent liquid, methacholine (10 μg/kg) was intravenously administered to induce airway contraction. The airway contraction inhibitory activity was evaluated using peak height of the airway contraction induced by methacholine as the index.
In this connection, the blood concentration measurement was carried out by LC/MS/MS using blood plasma.

[3] = continuous intravenous infusion, methacholine 10 μg/kg after 75 minutes

blood concentration at around the ID50 value (intravesical pressure) ([1]; male, Hartley, in vivo): about 1 ng/ml | blood concentration at around the ID50 value (airway contraction) ([2]; plasma, LC/MS/MS): about 1 ng/ml
SMILES: Cc1nccn1CCC(C(N)=O)(c1ccccc1)c1ccccc1 [imidafenacin, 4-(2-methyl-1-imidazolyl)-2,2-diphenylbutylamide]
ID50, bladder contraction inhibitory activity [1, 3]: 0.064 µg/kg/min | ID50, airway contraction inhibitory activity [2, 3]: 0.061 µg/kg/min
